# Measured values from patent US20200384014A1, “Pulsed Administration Of Inhaled Nitric Oxide For The Treatment Of Pulmonary Hypertension” (Bellerophon Pulse Technologies LLC, priority 2017, published 2020).
# System: systolic pulmonary arterial pressure (sPAP) in subjects with PH-COPD
# Test: Phase 2 placebo-controlled clinical study of pulsed iNO in subjects with PH-COPD on LTOT (IK-7002-COPD-201; NCT01728220)
# Format: in vivo, human
# Set-up: Average Change in sPAP vs Baseline: unit not given beside the values
# Details: for Average Change in sPAP vs Baseline: PH-COPD subjects on LTOT, echocardiography
# Source text: This study was a Phase 2, placebo-controlled, double-blind, randomized, two-part, dose-confirming clinical study characterizing the pharmacodynamic effects of pulsed iNO versus placebo in subjects with PH-COPD on LTOT (IK-7002-COPD-201; NCT01728220). The primary outcome of this study was change in systolic pulmonary arterial pressure (sPAP) from baseline after treatment with iNO (measured by 2D transthoracic echocardiography with Doppler). The secondary outcome was the occurrence of a decrease ≥5 mm Hg of partial pressure of oxygen in arterial blood (PaO2) from baseline after treatment with iNO.
# Subjects also had tricuspid regurgitation velocity (TRV)≥2.9 m/s as measured by echocardiogram, a post-bronchodilatory forced expiratory volume in 1 second/forced vital capacity (FEV1/FVC)<0.7 and a FEV1<60% predicted. All subjects were at least 40 years old and were former smokers with at least 10 pack-years of tobacco cigarette smoking before study entry. All subjects also had been receiving LTOT for at least 3 months for at least 10 hours per day.
# PH-COPD subjects were administered pulsed iNO at a dose of 3, 10, 15, 30 or 75 mcg/IBW kg/hr for at least 20 minutes, or received pulsed placebo (99.999% N2) for at least 20 minutes. The doses of 3 and 10 mcg/kg IBW/hr were administered from a mini-cylinder having 2,440 ppm NO and the doses of 15, 30 and 75 mcg/kg IBW/hr were administered from a mini-cylinder having 4,880 ppm NO.
# The NO delivery device delivered gas comprising NO in a pulsatile manner at the beginning of the patient's breath. The minimum pulse volume is limited and for lower doses, can require 1 or more breaths to be skipped to maintain a constant dose in mcg/kg IBW/hr.
smiles,measurement,setting,value
"[N]=O [iNO, nitric oxide]",Average Change in sPAP vs Baseline,"pulsed iNO 10 mcg/kg IBW/hr for at least 20 minutes, N=21",−4.4
same,Average Change in sPAP vs Baseline,"pulsed iNO 15 mcg/kg IBW/hr for at least 20 minutes, N=21",−2.4
same,Average Change in sPAP vs Baseline,"pulsed iNO 30 mcg/kg IBW/hr for at least 20 minutes, N=24",−4.5
same,Average Change in sPAP vs Baseline,"pulsed iNO 75 mcg/kg IBW/hr for at least 20 minutes, N=24",−4.3
same,"Efficacy (decrease in sPAP), in words",pulsed iNO 3 mcg/kg IBW/hr,ineffective
same,"Efficacy (decrease in sPAP), in words",pulsed iNO 10 mcg/kg IBW/hr,showed efficacy
same,"Efficacy (decrease in sPAP), in words",pulsed iNO 15 mcg/kg IBW/hr,did not show efficacy
same,"Efficacy (decrease in sPAP), in words",pulsed iNO 30 mcg/kg IBW/hr,showed efficacy
same,"Efficacy (decrease in sPAP), in words",pulsed iNO 75 mcg/kg IBW/hr,showed efficacy
